Test systems include NCI-H23 lung; SK-MEL-2 melanoma; NCI-H460 lung; KM12 colon; HOP-92 NSCLC; SK-OV-3 ovarian; CCRF-CEM leukemia; HOP-62 NSCLC; SF-295 CNS; SF-539 CNS.
What all share (assay): NCI-60 cell line screen, 48 h

The structures appear in SMILES notation.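 The compound was tested at five concentrations on cells cultured in 96-well plates, with a 48-hour exposure period. GI50 is the concentration that inhibits growth by half. TGI denotes the concentration required for complete inhibition of growth.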

With `CN=C1C=CC(=C(c2ccc(N(C)C)cc2)c2ccc(N(C)C)cc2)C=C1`, the GI50 was 224 nM in the experiment on NCI-H23 lung; 202 nM in the experiment with SK-MEL-2 melanoma; 130 nM with NCI-H460 lung; 165 nM in the experiment with KM12 colon; 205 nM in the experiment on HOP-92 NSCLC; 261 nM with SK-OV-3 ovarian. The GI50 in the experiment on CCRF-CEM leukemia was 256 nM; in the experiment on HOP-62 NSCLC, 76.5 nM; with SF-295 CNS, 147 nM; in the experiment on SF-539 CNS, 319 nM. In addition, the TGI in the experiment on NCI-H23 lung is 1.02 µM; in the experiment with SK-MEL-2 melanoma, 0.462 µM; in the experiment with NCI-H460 lung, 0.909 µM; with KM12 colon it was 0.673 µM; in the experiment with HOP-92 NSCLC, 0.633 µM; in the experiment on SK-OV-3 ovarian, 0.828 µM. Also, the TGI in the experiment on CCRF-CEM leukemia was 7.57 µM; with HOP-62 NSCLC, 1.48 µM; in the experiment on SF-295 CNS it was 0.473 µM; with SF-539 CNS it was 1.84 µM.
For the compound `O=C1/C(=C/c2ccc(F)cc2)CN(C(=O)CCN2CCC(=NO)CC2)C/C1=C\c1ccc(F)cc1`, the GI50 in the experiment with NCI-H23 lung was 1920 nM; in the experiment on SK-MEL-2 melanoma, 4070 nM; in the experiment with NCI-H460 lung, 2020 nM; in the experiment on KM12 colon, 537 nM; in the experiment on HOP-92 NSCLC, 3210 nM; in the experiment with SK-OV-3 ovarian, 5220 nM. The GI50 in the experiment on CCRF-CEM leukemia is 514 nM; in the experiment on HOP-62 NSCLC, 2340 nM; in the experiment on SF-295 CNS it was 2060 nM; in the experiment with SF-539 CNS, 1950 nM. The TGI with NCI-H23 lung turned out to be 4.47 µM; in the experiment with SK-MEL-2 melanoma, 12.4 µM; with NCI-H460 lung it was 5.17 µM; with KM12 colon it was 1.33 µM; in the experiment on HOP-92 NSCLC, 7.39 µM; in the experiment with SK-OV-3 ovarian it was 11.5 µM. For the same compound, the TGI in the experiment with CCRF-CEM leukemia was greater than 57.6 µM; with HOP-62 NSCLC, 6.02 µM; in the experiment with SF-295 CNS, 4.72 µM; in the experiment with SF-539 CNS it was 4.07 µM.
Turning to `O=C(O)/C(Cc1cn[nH]n1)=N\O`, the TGI with NCI-H23 lung, in the experiment with SK-MEL-2 melanoma, in the experiment on NCI-H460 lung, in the experiment on KM12 colon, with HOP-92 NSCLC and in the experiment on SK-OV-3 ovarian was greater than 100 µM throughout. In addition, the TGI with CCRF-CEM leukemia, in the experiment with HOP-62 NSCLC, in the experiment with SF-295 CNS and with SF-539 CNS was greater than 100 µM throughout.
With `Cc1ccc(C)c(N2C(=O)C(=O)C(c3nc4ccccc4o3)C(=O)C2=O)c1`, the TGI in the experiment on NCI-H23 lung, with SK-MEL-2 melanoma, in the experiment with NCI-H460 lung, in the experiment on KM12 colon, in the experiment on HOP-92 NSCLC and with SK-OV-3 ovarian was greater than 100 µM each time. Further, the TGI in the experiment with CCRF-CEM leukemia, in the experiment with HOP-62 NSCLC, in the experiment with SF-295 CNS and with SF-539 CNS was greater than 100 µM in each case.
On to `COc1cc(C2C3=C(COC3=O)N(CCO)c3cc4c(cc32)OCCO4)cc(OC)c1OC` (stereo not drawn), for which the GI50 in the experiment with NCI-H23 lung is 203 nM; with SK-MEL-2 melanoma, 173 nM; in the experiment with NCI-H460 lung, 208 nM; in the experiment on KM12 colon, 187 nM; in the experiment on HOP-92 NSCLC it was 111 nM; in the experiment with SK-OV-3 ovarian it was 224 nM. For the same compound, the GI50 in the experiment on CCRF-CEM leukemia is 176 nM; in the experiment with HOP-62 NSCLC, 465 nM; in the experiment with SF-295 CNS, 150 nM; in the experiment on SF-539 CNS, 147 nM. In addition, the TGI with SK-MEL-2 melanoma is 4.55 µM; in the experiment with NCI-H460 lung, 1.68 µM; with KM12 colon, 0.838 µM; in the experiment with HOP-92 NSCLC, greater than 50 µM; with SK-OV-3 ovarian, greater than 14.5 µM; in the experiment with CCRF-CEM leukemia, greater than 50 µM. Further, the results for the TGI in the experiment with HOP-62 NSCLC and in the experiment with SF-295 CNS were greater than 50 µM and 4.66 µM, respectively.
`CC/C(Cc1ccccc1)=C(\c1ccc(OCCN2CCCC2)cc1)c1ccc(OC(=O)NCc2ccccc2)cc1`: the GI50 was 3430 nM in the experiment with NCI-H23 lung; 2090 nM in the experiment on SK-MEL-2 melanoma; 1890 nM with NCI-H460 lung; 1920 nM in the experiment with KM12 colon; 1580 nM in the experiment with HOP-92 NSCLC; 11600 nM in the experiment with SK-OV-3 ovarian. Further, the GI50 in the experiment on CCRF-CEM leukemia was 2830 nM; with HOP-62 NSCLC, 2070 nM; in the experiment with SF-295 CNS, 1700 nM; in the experiment on SF-539 CNS, 1700 nM. Moreover, the TGI in the experiment on NCI-H23 lung is 13.7 µM; in the experiment with SK-MEL-2 melanoma, 3.99 µM; in the experiment on NCI-H460 lung it was 3.42 µM; with KM12 colon, 3.81 µM; with HOP-92 NSCLC it was 3.19 µM; in the experiment on SK-OV-3 ovarian, 24.6 µM. Besides, the TGI in the experiment with CCRF-CEM leukemia is 7.56 µM; in the experiment with HOP-62 NSCLC, 3.75 µM; with SF-295 CNS, 3.14 µM; in the experiment with SF-539 CNS, 3.09 µM.
For the compound `O=C(CN(/C=C/C(=O)C(F)(F)F)c1ccc(Cl)cc1)c1ccc(Cl)c(Cl)c1`, the GI50 is 6100 nM in the experiment on NCI-H23 lung; 7150 nM in the experiment with SK-MEL-2 melanoma; 3180 nM in the experiment on NCI-H460 lung; 2620 nM in the experiment with KM12 colon; 3210 nM with HOP-92 NSCLC; 17100 nM in the experiment with SK-OV-3 ovarian. The GI50 in the experiment with CCRF-CEM leukemia is 3410 nM; in the experiment on HOP-62 NSCLC, 11500 nM; in the experiment with SF-295 CNS it was 4980 nM; in the experiment with SF-539 CNS it was 20100 nM. In addition, the TGI in the experiment on NCI-H23 lung was determined as 19.2 µM; with SK-MEL-2 melanoma, 20.7 µM; in the experiment with NCI-H460 lung, 9.36 µM; with KM12 colon, 10.8 µM; with HOP-92 NSCLC, 14.5 µM; in the experiment with SK-OV-3 ovarian, 35.2 µM. In addition, the TGI is 11 µM with CCRF-CEM leukemia, 23.8 µM in the experiment on HOP-62 NSCLC, 17.4 µM with SF-295 CNS and 38 µM in the experiment with SF-539 CNS.
With `CCN(CC)CCCC(C)Nc1cc(-c2cccc(OC(F)(F)F)c2)nc2ccc(N3CCCC3)cc12` (stereo not drawn), the GI50 in the experiment on NCI-H23 lung was 161 nM; in the experiment on SK-MEL-2 melanoma it was 598 nM; in the experiment on NCI-H460 lung, 37.7 nM; in the experiment with KM12 colon it was 43.7 nM; with HOP-92 NSCLC, 582 nM; with SK-OV-3 ovarian it was 77.9 nM. Besides, the GI50 was 56.4 nM in the experiment on CCRF-CEM leukemia, 80.6 nM in the experiment with HOP-62 NSCLC, 40.4 nM in the experiment on SF-295 CNS and 38.2 nM with SF-539 CNS. In addition, the TGI in the experiment on NCI-H23 lung was greater than 64 µM; with SK-MEL-2 melanoma, 27 µM; in the experiment with NCI-H460 lung, 3.66 µM; with KM12 colon, 11.4 µM; in the experiment on HOP-92 NSCLC, 13.4 µM; in the experiment with SK-OV-3 ovarian, 98.7 µM. Further, the TGI with CCRF-CEM leukemia was greater than 100 µM; in the experiment on HOP-62 NSCLC, greater than 48.2 µM; in the experiment on SF-295 CNS it was 11.9 µM; with SF-539 CNS, 0.508 µM.

The record behind these values is PubChem BioAssay (NCI).
